Reference: article PMC5515969, “Effects of 31 FDA approved small-molecule kinase inhibitors on isolated rat liver mitochondria” (Archives of Toxicology, 2016)
Where two headings read alike, the source gives them in different places. Marks after values point to notes of the source that are not given here.

Key:
[1] = cited from earlier work
[2] = system: isolated rat liver mitochondria; test: Mitochondrial ROS production (CM-H2DCFDA)
[3] = system: isolated rat liver mitochondria; test: Mitochondrial oxygen consumption (glutamate/malate or succinate driven, state 4 and state 3); format: biochemical; conditions: for Glutamate/malate driven respiration State 3 / Glutamate/malate driven respiration State 4 / Succinate-driven respiration State 3 / Succinate-driven respiration State 4: oxygen consumption, DMSO-treated = 1; for State 3 respiration driven by succinate at 10XCmax: key: 0 indicates that the drug had no effects (negative); for State 3 respiration driven by succinate at 1XCmax: key: 0 indicates that the drug had no effects (negative)
In short: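 Oxygen uptake on glutamate/malate or on succinate defined state 4; ADP added 3 min later gave state 3. Mitochondria isolated from rat liver by differential centrifugation, adjusted to 1 mg/ml and pretreated 5 min with inhibitor (0.1% DMSO final). Values relative to DMSO control, set to 1.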

RCC IV = RCC IV activity in submitochondrial particles; format: biochemical, rat; design: key to RCC IV at 50XCmax / RCC IV at 100XCmax: activity relative to DMSO-treated controls (control set as 1 = 100%); conditions: for RCC activity IV: 15 min, DMSO-treated = 100
In short: (§1)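 Absorbance kinetics: A340 (RCC I, V) and A600 (RCC II) read each minute over 6 min, A550 (RCC III, IV) every 10 s over 2 min; RCC I taken as […]. Particles (1 mg/ml) pretreated 15 min with compound; DMSO-treated activity = 1.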

[4] = system: isolated rat liver mitochondria
RCC III = RCC III activity in submitochondrial particles; format: biochemical, rat; design: key to RCC III at 100XCmax: activity relative to DMSO-treated controls (control set as 1 = 100%); conditions: for RCC activity III: 15 min, DMSO-treated = 100
In short: as §1

[5] = system: isolated rat liver mitochondria; test: Mitochondrial swelling (absorbance at 535 nm); format: biochemical; for Swelling 5XCmax: key: 0 indicates that the drug had no effects (negative)
[6] = system: isolated rat liver mitochondria; test: Mitochondrial inner membrane potential (MMP), Rhodamine 123; format: biochemical
Description: Fig. 3 KI effects on mitochondrial inner membrane potential (MMP). […] In a, c, data are means and standard derivations from three separate experiments. *p < 0.05 as compared to DMSO-treated samples at the end of experiments. In b, data are means of two independent experiments

[7] = cited from earlier work; remark: listed apart in the source
[8] = 1XCmax, DMSO treated samples set as 1
[9] = 2.5XCmax, DMSO treated samples set as 1
[10] = 5XCmax, DMSO treated samples set as 1
[11] = 10XCmax, DMSO treated samples set as 1
[12] = 20XCmax, DMSO treated samples set as 1
[13] = 30XCmax, DMSO treated samples set as 1
[14] = 50XCmax, DMSO treated samples set as 1
[15] = 100XCmax, DMSO treated samples set as 1
[16] = 1XCmax, difference in signal between KI and DMSO treated samples at the end of experiments
[17] = 2.5XCmax, difference in signal between KI and DMSO treated samples at the end of experiments
[18] = 5XCmax, difference in signal between KI and DMSO treated samples at the end of experiments
[19] = 10XCmax, difference in signal between KI and DMSO treated samples at the end of experiments
[20] = 20XCmax, difference in signal between KI and DMSO treated samples at the end of experiments
[21] = 30XCmax, difference in signal between KI and DMSO treated samples at the end of experiments
[22] = 50XCmax, difference in signal between KI and DMSO treated samples at the end of experiments
[23] = 100XCmax, difference in signal between KI and DMSO treated samples at the end of experiments

In the case of Cc1cc(Nc2ncc(Cl)c(Nc3ccccc3S(=O)(=O)C(C)C)n2)c(OC(C)C)cc1C1CCNCC1 [Ceritinib], the Cmax ([1]; human therapeutic Cmax at FDA recommended dosages, ref product labeling and drug approval packages at the official FDA website) is listed as 1.81 µM, the “Cmax (ng or µg/ml)” value ([1]; human therapeutic maximal blood concentration, ref product labeling) is listed as 1.01 µg/mL and the Cmax ([1]; read-out: Cmax at µM, human therapeutic maximal blood concentration, ref product labeling) is listed as 1.81 µM. The “lowest concentration triggering ROS overproduction” value [2] was 50 fold Cmax, the “ROS measured by CM-H2DCFDA at 1XCmax” value [2, 8] was 0 and the “ROS measured by CM-H2DCFDA at 2.5XCmax” value [2, 9] was 0. The “ROS measured by CM-H2DCFDA at 5XCmax” value [2, 10] was 0, the “ROS measured by CM-H2DCFDA at 10XCmax” value [2, 11] was 0 and the “ROS measured by CM-H2DCFDA at 20XCmax” value [2, 12] was 0. For the same molecule, the “ROS measured by CM-H2DCFDA at 30XCmax” value [2, 13] was 0, the “ROS measured by CM-H2DCFDA at 50XCmax” value [2, 14] was 2.51±0.21 and the “ROS measured by CM-H2DCFDA at 100XCmax” value [2, 15] was 1.93±0.49. For the same molecule, the “effect on ROS production” value ([2]; highest tested concentrations) was “significantly ROS production”, the “State 3 respiration driven by glutamate/malate at 1XCmax” value [3, 8] was 0 and the “State 3 respiration driven by succinate at 1XCmax” value [3, 8] was 0. The “State 4 respiration driven by glutamate/malate at 1XCmax” value [3, 8] was 0, the “State 4 respiration driven by succinate at 1XCmax” value [3, 8] was 0 and the “State 3 respiration driven by glutamate/malate at 2.5XCmax” value [3, 9] was 0. The “State 3 respiration driven by succinate at 2.5XCmax” value [3, 9] was 0, the “State 4 respiration driven by glutamate/malate at 2.5XCmax” value [3, 9] was 0 and the “State 4 respiration driven by succinate at 2.5XCmax” value [3, 9] was 0. For the same molecule, the “State 3 respiration driven by glutamate/malate at 5XCmax” value [3, 10] was 0, the “State 3 respiration driven by succinate at 5XCmax” value [3, 10] was 0 and the “State 4 respiration driven by glutamate/malate at 5XCmax” value [3, 10] was 0. For the same molecule, the “State 4 respiration driven by succinate at 5XCmax” value [3, 10] was 0, the “State 3 respiration driven by glutamate/malate at 10XCmax” value [3, 11] was 0 and the “State 3 respiration driven by succinate at 10XCmax” value [3, 11] was 0. For the same molecule, the “State 4 respiration driven by glutamate/malate at 10XCmax” value [3, 11] was 0, the “State 4 respiration driven by succinate at 10XCmax” value [3, 11] was 0 and the “State 3 respiration driven by glutamate/malate at 20XCmax” value [3, 12] was 0. For the same molecule, the “State 3 respiration driven by succinate at 20XCmax” value [3, 12] was 0, the “State 4 respiration driven by glutamate/malate at 20XCmax” value [3, 12] was 0 and the “State 4 respiration driven by succinate at 20XCmax” value [3, 12] was 0. The “Glutamate/malate driven respiration State 3” value ([3]; 30-fold Cmax) was 0.88 ± 0.05, the “Glutamate/malate driven respiration State 4” value ([3]; 30-fold Cmax) was 1.12 ± 0.13 and the “Succinate-driven respiration State 3” value ([3]; 30-fold Cmax) was 0.41 ± 0.18. For the same molecule, the “Succinate-driven respiration State 4” value ([3]; 30-fold Cmax) was 0.70 ± 0.12, the “State 3 respiration driven by glutamate/malate at 30XCmax” value [3, 13] was 0 and the “State 3 respiration driven by succinate at 30XCmax” value [3, 13] was 0.41±0.18. For the same molecule, the “State 4 respiration driven by glutamate/malate at 30XCmax” value [3, 13] was 0, the “State 4 respiration driven by succinate at 30XCmax” value [3, 13] was 0.70±0.12 and the “Glutamate/malate driven respiration State 3” value ([3]; 50-fold Cmax) was 0.55 ± 0.03. For the same molecule, the “Glutamate/malate driven respiration State 4” value ([3]; 50-fold Cmax) was 1.21 ± 0.12, the “Succinate-driven respiration State 3” value ([3]; 50-fold Cmax) was 0.45 ± 0.08 and the “Succinate-driven respiration State 4” value ([3]; 50-fold Cmax) was 0.77 ± 0.07. The “State 3 respiration driven by glutamate/malate at 50XCmax” value [3, 14] was 0.55±0.03, the “State 3 respiration driven by succinate at 50XCmax” value [3, 14] was 0.45±0.08 and the “State 4 respiration driven by glutamate/malate at 50XCmax” value [3, 14] was 1.21±0.12. For the same molecule, the “State 4 respiration driven by succinate at 50XCmax” value [3, 14] was 0.77±0.07, the “inhibition of mitochondrial oxygen consumption” value ([3]; 100-fold Cmax) was about 100% and the “Glutamate/malate driven respiration State 3” value ([3]; 100-fold Cmax) was 0.08 ± 0.02. For the same molecule, the “Glutamate/malate driven respiration State 4” value ([3]; 100-fold Cmax) was 0.50 ± 0.06, the “Succinate-driven respiration State 3” value ([3]; 100-fold Cmax) was 0.03 ± 0.02 and the “Succinate-driven respiration State 4” value ([3]; 100-fold Cmax) was 0.17 ± 0.10. For the same molecule, the “State 3 respiration driven by glutamate/malate at 100XCmax” value [3, 15] was 0.08±0.02, the “State 3 respiration driven by succinate at 100XCmax” value [3, 15] was 0.03±0.02 and the “State 4 respiration driven by glutamate/malate at 100XCmax” value [3, 15] was 0.50±0.06. For the same molecule, the “State 4 respiration driven by succinate at 100XCmax” value [3, 15] was 0.17±0.10, the “lowest concentration significantly affecting mitochondrial oxygen consumption” value ([3]; tested at 1 to 100-fold Cmax) was 30 fold Cmax and the “RCC activity IV” value (RCC IV; 50-fold Cmax) was 82.33 ± 3.68 % of control. The “RCC IV at 50XCmax” value (RCC IV; 50XCmax, DMSO treated samples set as 1, in %) was 82.33±3.68, the “RCC activity IV” value (RCC IV; 100-fold Cmax) was 71.46 ± 7.39 % of control and the “RCC IV at 100XCmax” value (RCC IV; 100XCmax) was 71.46±7.39. The “Cytochrome c release 1XCmax” value ([4]; 1XCmax, positive control alamethicin treated samples) was 0, the “Cytochrome c release 2.5XCmax” value ([4]; 2.5XCmax, positive control alamethicin treated samples) was 0 and the “Cytochrome c release 5XCmax” value ([4]; 5XCmax, positive control alamethicin treated samples) was 0. For the same molecule, the “Cytochrome c release 10XCmax” value ([4]; 10XCmax, positive control alamethicin treated samples) was 0, the “Cytochrome c release 20XCmax” value ([4]; 20XCmax, positive control alamethicin treated samples) was 0 and the “Cytochrome c release 30XCmax” value ([4]; 30XCmax, positive control alamethicin treated samples) was 0. For the same molecule, the “Cytochrome c release 50XCmax” value ([4]; 50XCmax, positive control alamethicin treated samples) was 11.93±0.58 percentage of the positive control group, the “total cytochrome c leaked after treatment” value ([4]; 100-fold Cmax, alamethicin = 100) was 33% and the “Cytochrome c release 100XCmax” value ([4]; 100XCmax, positive control alamethicin treated samples) was 32.92±4.32 percentage of the positive control group. The “lowest concentration causing cytochrome c release” value ([4]; rat, 30 min, pH 7.4) was 50 fold Cmax, the “RCC activity III” value (RCC III; 50-fold Cmax) was 103.80 ± 5.19 % of control and the “RCC activity III” value (RCC III; 100-fold Cmax) was 68.48 ± 6.59 % of control. For the same molecule, the “RCC III at 100XCmax” value (RCC III; 100XCmax) was 68.48±6.59, the “lowest concentration causing mitochondrial swelling” value [5] was 100 fold Cmax and the “Swelling 1XCmax” value [5, 16] was 0. For the same molecule, the “Swelling 2.5XCmax” value [5, 17] was 0, the “Swelling 5XCmax” value [5, 18] was 0 and the “Swelling 10XCmax” value [5, 19] was 0. For the same molecule, the “Swelling 20XCmax” value [5, 20] was 0, the “Swelling 30XCmax” value [5, 21] was 0 and the “Swelling 50XCmax” value [5, 22] was 0. The “Swelling 100XCmax” value [5, 23] was 0.54±0.06, the “effect on mitochondrial swelling” value ([5]; up to 100-fold Cmax or highest testable concentration, 25 µM calcium chloride) was “significant mitochondrial swelling” and the “lowest concentration decreasing MMP” value [6] was 100 fold Cmax. The “MMP measured by Rhodamine 123 at 1XCmax” value [6, 16] was 0, the “MMP measured by Rhodamine 123 at 2.5XCmax” value [6, 17] was 0 and the “MMP measured by Rhodamine 123 at 5XCmax” value [6, 18] was 0. For the same molecule, the “MMP measured by Rhodamine 123 at 10XCmax” value [6, 19] was 0, the “MMP measured by Rhodamine 123 at 20XCmax” value [6, 20] was 0 and the “MMP measured by Rhodamine 123 at 30XCmax” value [6, 21] was 0. For the same molecule, the “MMP measured by Rhodamine 123 at 50XCmax” value [6, 22] was 0, the “MMP measured by Rhodamine 123 at 100XCmax” value [6, 23] was 4568±757* and the “effect on MMP” value ([6]; up to 100-fold Cmax or highest testable concentration) was “decrease in MMP”. For the same molecule, the “DILI potential (based on labeling)” value ([7]; 1 DILI positive, 0 negative according to labeling, ref product labeling) was 1, the “Labeling for DILI” value ([7]; BBW: black box warning, W&P: Warnings and Precautions, ref product labeling) was “W&P: ALT↑” and the “labeling for DILI” value ([7]; W&P warnings and precautions, BBW black box warnings, ref FDA product labeling) was “W&P: ALT↑/monitoring”. The “DILI potential (based on labeling)” value ([7]; ref FDA product labeling) was 1.
